Tests used:
[1] = Critical micelle concentration (CMC) and surface parameters of the surfactants; format: physicochemical; design: PC20: unit not given here
Source text: That fact could be explained from the unique property of the metal complexes in water. That is the complexes retain its unity in their solutions, which increased their volume in the aqueous media and then repulsion is occurred between the hydrophobic chain and water molecules. […] The efficiency “PC20” increase with increasing molar ratio of methylene units. These due to the fact that the efficiency of adsorption at interfaces increase linearly with increase in the carbon atoms in hydrophobic group. In case of the prepared parent cationic surfactants by increasing the number methylene units Maximum surface excess Γmax increases, this due to migration of molecules to the water-air interface. The consequence increase of Γmax leads to crowdiness occurred at the interface which causing decrease in Minimum area per molecule Amin values. That is due to the minimum surface area decrease with increasing the hydrophobic chain length of the synthesized surfactant molecules. The standard free energies of micellization ΔG° mic and adsorption ΔG° ads values are always negative indicating the spontaneously of these two processes but there is more increase in negativity of ΔG° ads rather than those of micellization indicating the tendency of the molecules to be adsorbed at the interface.

[2] = test system: Ehrlich ascites carcinoma (EAC) cells; assay: Antitumor activity using Ehrlich ascites carcinoma (EAC), in vitro percentage of nonviable cells; format: cell-based, mice; details: NVC %
Procedure: (§1) Olylammonium hydrogen selenites hydrogen selenite with its cobalt and platinum complexes were investigated as potential selective, anticancer prodrugs. They were tested by using Ehrlich Acites Carcinoma (EAC) as a model system of mice cell tumor. These compounds were also Tested in vitro on human […] monolayer tumor cell lines: MCF7 (Breast carcinoma), HEPG2 (liver carcenoma), U 251 ([…]) and HCT116 (colon carcinoma).
Ehrlich ascites carcinoma cells as a model system was based on the finding that it is excellent tool for studying the biological behavior of malignant tumors and drug action with cells. A line of Ehrlich ascites carcinoma (EAC) which used in the present study had been kindly supplied from National Cancer Institute, Cairo, Egypt, and maintained in female Swiss albino mice through weekly […] transplantation of 2.5×10^6 tumor cells/mouse. EAC cells were obtained by needle aspiration with aseptic condition. The ascetic fluid was diluted with sterile saline so that 0.1 ml contains 2.5×10^6 cells counted microscopically using a haemocytometer. In vitro studying of these compounds antitumor activity was determined according to the percentage of nonviable cells (NVC %) which was calculated by the following equation NVC %=[number of NVC/total number of cells][…].

HELA = assay: Cytotoxic activity on human tumor cell line HELA; format: cell-based; details: dose to reduce survival to 50%
Procedure: as §1
(§2) The results of the cytotoxic activity on human tumor cell lines were determined according to the dose values of drug exposure for cell lines to reduce survival to 50% (Ic50). The experimental results recorded in Table (3).

MCF7 (Breast carcinoma) = assay: Cytotoxic activity on human tumor cell line MCF7; format: cell-based; details: dose to reduce survival to 50%
Procedure: as §1, §2

HEPG2 (liver carcenoma) = assay: Cytotoxic activity on human tumor cell line HEPG2; format: cell-based; details: dose to reduce survival to 50%
Procedure: as §1, §2

HCT116 (colon carcinoma) = assay: Cytotoxic activity on human tumor cell line HCT116; format: cell-based; details: dose to reduce survival to 50%
Procedure: as §1, §2

[3] = test system: sulphur reducing bacteria; assay: Antibacterial activity against sulphur reducing bacteria, inhibition zone; format: cell-based
Source text: The results of the synthesized cationic surfactants against sulphur reducing bacteria recorded in Table 4.

In the case of CCCCCCCC/C=C\CCCCCCCCN.O=[Se](O)O [IIa, olylammonium hydrogen selenite], the “Δ Gads/Amin” value [1] is reported as −46.8, the ΠCMC [1] is reported as 39 mN/m and the “CMC × 10−3” value ([1]; critical micelle concentration, values × 10−3) is reported as 1.3. For the same compound, the PC20 ([1]; efficiency) was 3.8, the “Γmax × 10−11” value ([1]; maximum surface excess, values × 10−11) was 10.6 Mole/cm^2 and the A min ([1]; minimum area per molecule) was 1.6 nm2. For the same compound, the “Δ Gads” value ([1]; standard free energy of adsorption) was −67.7, the “Δ Gmic” value ([1]; standard free energy of micellization) was −34.1 and the γCMC ([1]; surface tension at CMC) was 33 mN/m. The Percent nonviable cells ([2]; Conc. 25 μg/ml) was 10%, the Percent nonviable cells ([2]; Conc. 50 μg/ml) was 20% and the Percent nonviable cells ([2]; Conc. 100 μg/ml) was 40%. The “HELA (IC50)” value (HELA) was “does not reach to Ic50”, the “MCF7 (IC50)” value (MCF7 (Breast carcinoma)) was “does not reach to Ic50” and the “HEPG2 (IC50)” value (HEPG2 (liver carcenoma)) was “does not reach to Ic50”. The “HCT116 (IC50)” value (HCT116 (colon carcinoma)) was “does not reach to Ic50” and the Inhibition zone diameter [3] was 25 mm/mg sample.

From US10118893B2, “Method of making complex nano particles and using the same to reduce cell viability” (Umm Al-Qura University, priority 2014, dated 2018)
